Assay results taken from PubChem BioAssay (NCI).
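Method: 48-hour compound exposure of cells in 96-well plates, five concentrations, linear interpolation of endpoints. At the GI50, growth is halved. Definition used: TGI = concentration required for complete inhibition of growth.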

Key:
Assay in all cases: NCI tumour cell line growth inhibition, 48 h
[1] = tested on: HL-60(TB) leukemia
[2] = tested on: SF-295 CNS
[3] = tested on: MDA-MB-435
[4] = tested on: OVCAR-8 ovarian
[5] = tested on: OVCAR-3 ovarian
[6] = tested on: HOP-92 NSCLC
[7] = tested on: UACC-257 melanoma
[8] = tested on: OVCAR-4 ovarian
[9] = tested on: SK-OV-3 ovarian
[10] = tested on: K-562 leukemia
[11] = tested on: NCI-H226 lung
[12] = tested on: SK-MEL-5 melanoma
[13] = tested on: NCI-H460 lung
[14] = tested on: UACC-62 melanoma
[15] = tested on: HS 578T breast
[16] = tested on: SF-268 CNS
[17] = tested on: MDA-MB-231 breast
[18] = tested on: EKVX NSCLC
[19] = tested on: TK-10 renal
[20] = tested on: SF-539 CNS
[21] = tested on: 786-0 renal
[22] = tested on: HCT-116 colon
[23] = tested on: SN12C renal
[24] = tested on: DU-145 prostate
[25] = tested on: U251 CNS
[26] = tested on: LOX IMVI melanoma
[27] = tested on: A498 renal
[28] = tested on: NCI/ADR-RES ovarian
[29] = tested on: HOP-62 NSCLC
[30] = tested on: MDA-MB-468 breast
[31] = tested on: CCRF-CEM leukemia
[32] = tested on: RXF 393 renal
[33] = tested on: M14 melanoma
[34] = tested on: SW-620 colon
[35] = tested on: IGROV1 ovarian
[36] = tested on: ACHN renal
[37] = tested on: NCI-H522 lung
[38] = tested on: SNB-75 CNS
[39] = tested on: HCC-2998 colon
[40] = tested on: SNB-19 CNS
[41] = tested on: COLO 205 colon
[42] = tested on: MCF7 breast
[43] = tested on: SK-MEL-2 melanoma
[44] = tested on: A549 NSCLC
[45] = tested on: PC-3 prostate
[46] = tested on: BT-549 breast
[47] = tested on: RPMI-8226 leukemia
[48] = tested on: HCT-15 colon
[49] = tested on: MALME-3M melanoma
[50] = tested on: OVCAR-5 ovarian
[51] = tested on: KM12 colon
[52] = tested on: NCI-H23 lung
[53] = tested on: T-47D breast
[54] = tested on: SR leukemia
[55] = tested on: HT29 colon
[56] = tested on: MOLT-4 leukemia
[57] = tested on: CAKI-1 renal
[58] = tested on: UO-31 renal
[59] = tested on: SK-MEL-28 melanoma

In the case of `ClC(Cn1ncc2c(Nc3cccc(Br)c3)nc(SCCN3CCOCC3)nc21)c1ccc(Br)cc1` (stereo not given), the GI50 [1] is reported as 3.03 µM, the TGI [1] is reported as > 100 µM and the GI50 [2] is reported as 1.78 µM. The TGI [2] was 3.57 µM, the GI50 [3] was 3.89 µM and the TGI [3] was 21.5 µM. For the same compound, the GI50 [4] was 6.5 µM, the TGI [4] was > 100 µM and the GI50 [5] was 10.3 µM. The TGI [5] was 60 µM, the GI50 [6] was 3.5 µM and the TGI [6] was 23.9 µM. The GI50 [7] was 2.82 µM, the TGI [7] was 9.84 µM and the GI50 [8] was 6.42 µM. The TGI [8] was > 100 µM, the GI50 [9] was 6.46 µM and the TGI [9] was > 100 µM. For the same compound, the GI50 [10] was 2.84 µM, the TGI [10] was 26.2 µM and the GI50 [11] was 9.32 µM. The TGI [11] was 71.6 µM, the GI50 [12] was 2.07 µM and the TGI [12] was 4.47 µM. The GI50 [13] was 3.55 µM, the TGI [13] was > 100 µM and the GI50 [14] was 2.23 µM. For the same compound, the TGI [14] was 4.75 µM, the GI50 [15] was 2.44 µM and the TGI [15] was 7.88 µM. For the same compound, the GI50 [16] was 6.94 µM, the TGI [16] was > 100 µM and the GI50 [17] was 2.25 µM. The TGI [17] was 4.66 µM, the GI50 [18] was 5.01 µM and the TGI [18] was > 100 µM. For the same compound, the GI50 [19] was 13.6 µM, the TGI [19] was > 100 µM and the GI50 [20] was 1.79 µM. For the same compound, the TGI [20] was 3.48 µM, the GI50 [21] was 1.76 µM and the TGI [21] was 3.35 µM. The GI50 [22] was 3.09 µM, the TGI [22] was > 100 µM and the GI50 [23] was 6.47 µM. The TGI [23] was > 100 µM, the GI50 [24] was 15.1 µM and the TGI [24] was > 100 µM. It also gave a GI50 [25] of 3.34 µM, a TGI [25] of 41.3 µM and a GI50 [26] of 1.74 µM. For the same compound, the TGI [26] was 3.24 µM, the GI50 [27] was 6.37 µM and the TGI [27] was 35.2 µM. It also gave a GI50 [28] of 3.89 µM, a TGI [28] of 97.5 µM and a GI50 [29] of 3.71 µM. For the same compound, the TGI [29] was 22.4 µM, the GI50 [30] was 2.52 µM and the TGI [30] was 6.89 µM. The GI50 [31] was 2.17 µM, the TGI [31] was 10.1 µM and the GI50 [32] was 1.69 µM. The TGI [32] was 4.49 µM, the GI50 [33] was 2.5 µM and the TGI [33] was 8.72 µM. For the same compound, the GI50 [34] was 2.76 µM, the TGI [34] was 12.6 µM and the GI50 [35] was 8 µM. For the same compound, the TGI [35] was > 100 µM, the GI50 [36] was 4.38 µM and the TGI [36] was > 100 µM. The GI50 [37] was 2.87 µM, the TGI [37] was 9.33 µM and the GI50 [38] was 2.57 µM. For the same compound, the TGI [38] was 24.3 µM, the GI50 [39] was 3.8 µM and the TGI [39] was 60 µM. For the same compound, the GI50 [40] was 5.14 µM, the TGI [40] was > 100 µM and the GI50 [41] was 1.98 µM. The TGI [41] was 4.48 µM, the GI50 [42] was 2.77 µM and the TGI [42] was 24.6 µM. It also gave a GI50 [43] of 4.62 µM, a TGI [43] of 24.5 µM and a GI50 [44] of 4.93 µM. The TGI [44] was > 100 µM, the GI50 [45] was 3.77 µM and the TGI [45] was > 100 µM. It also gave a GI50 [46] of 11.7 µM, a TGI [46] of 27.9 µM and a GI50 [47] of 2.03 µM. For the same compound, the TGI [47] was 4.59 µM, the GI50 [48] was 1.65 µM and the TGI [48] was 3.8 µM. For the same compound, the GI50 [49] was 1.81 µM, the TGI [49] was 3.53 µM and the GI50 [50] was 5.24 µM. The TGI [50] was 30.3 µM, the GI50 [51] was 2.72 µM and the TGI [51] was 7.36 µM. It also gave a GI50 [52] of 3.46 µM, a TGI [52] of 18.6 µM and a GI50 [53] of 3.47 µM. For the same compound, the TGI [53] was > 100 µM.

With `COc1ccc2[nH]c(=O)cc(-n3ncc(C(=O)/C=C/c4cc(OC)c(OC)c(OC)c4)c3C)c2c1` the GI50 [1] was 3.88 µM, the TGI [1] was 29 µM and the GI50 [2] was 4.64 µM. For the same compound, the TGI [2] was 16.6 µM, the GI50 [54] was 4.2 µM and the TGI [54] was > 100 µM. The GI50 [3] was 3.81 µM, the TGI [3] was 14.1 µM and the GI50 [4] was 3.46 µM. For the same compound, the TGI [4] was 12.3 µM, the GI50 [5] was 4.04 µM and the TGI [5] was 13.9 µM. It also gave a GI50 [6] of 11.4 µM, a TGI [6] of 34.9 µM and a GI50 [7] of 12.5 µM. For the same compound, the TGI [7] was 26.6 µM, the GI50 [8] was 12.4 µM and the TGI [8] was 42.9 µM. It also gave a GI50 [55] of 3.15 µM, a TGI [55] of 11 µM and a GI50 [9] of 12 µM. The TGI [9] was 36.5 µM, the GI50 [10] was 3.24 µM and the TGI [10] was > 100 µM. For the same compound, the GI50 [11] was 11.1 µM, the TGI [11] was 25.4 µM and the GI50 [12] was 10.3 µM. For the same compound, the TGI [12] was 22 µM, the GI50 [13] was 3.28 µM and the TGI [13] was 13.6 µM. For the same compound, the GI50 [14] was 7.17 µM, the TGI [14] was 20.2 µM and the GI50 [15] was 8.96 µM. It also gave a TGI [15] of 95.2 µM, a GI50 [16] of 10.4 µM and a TGI [16] of 34.8 µM. The GI50 [17] was 5.4 µM, the TGI [17] was 18.6 µM and the GI50 [18] was 5.16 µM. The TGI [18] was 20.1 µM, the GI50 [19] was 8.02 µM and the TGI [19] was 20.9 µM. For the same compound, the GI50 [20] was 2.68 µM, the TGI [20] was 9.09 µM and the GI50 [21] was 11 µM. For the same compound, the TGI [21] was 25.3 µM, the GI50 [22] was 7.41 µM and the TGI [22] was 21.7 µM. The GI50 [56] was 3.81 µM, the TGI [56] was 64.9 µM and the GI50 [57] was 5.23 µM. It also gave a TGI [57] of 20 µM, a GI50 [23] of 3.59 µM and a TGI [23] of 15.6 µM. For the same compound, the GI50 [24] was 3.29 µM, the TGI [24] was 10.8 µM and the GI50 [25] was 3.91 µM. For the same compound, the TGI [25] was 18.5 µM, the GI50 [26] was 2.75 µM and the TGI [26] was 9.83 µM. The GI50 [27] was 19.1 µM, the TGI [27] was 36.3 µM and the GI50 [29] was 11.2 µM. For the same compound, the TGI [29] was 26.4 µM, the GI50 [30] was 2.5 µM and the TGI [30] was 7.3 µM. The GI50 [31] was 2.76 µM, the TGI [31] was 16.8 µM and the GI50 [32] was 2.79 µM. The TGI [32] was 9.94 µM, the GI50 [33] was 8.64 µM and the TGI [33] was 29.9 µM. For the same compound, the GI50 [34] was 3.54 µM, the TGI [34] was 13.5 µM and the GI50 [35] was 3.46 µM. It also gave a TGI [35] of 13.5 µM, a GI50 [36] of 4.33 µM and a TGI [36] of 16.6 µM. For the same compound, the GI50 [37] was 3.6 µM, the TGI [37] was 13.3 µM and the GI50 [39] was 11.5 µM. For the same compound, the TGI [39] was 24 µM, the GI50 [40] was 11.2 µM and the TGI [40] was 23.4 µM. For the same compound, the GI50 [41] was 4.94 µM, the TGI [41] was 17.2 µM and the GI50 [42] was 3.19 µM. For the same compound, the TGI [42] was 11.9 µM, the GI50 [43] was 6.06 µM and the TGI [43] was 18.7 µM. For the same compound, the GI50 [44] was 11.5 µM, the TGI [44] was 52.2 µM and the GI50 [45] was 10 µM. For the same compound, the TGI [45] was 38 µM, the GI50 [46] was 3.47 µM and the TGI [46] was 13.8 µM. For the same compound, the GI50 [58] was 5.62 µM, the TGI [58] was 18.9 µM and the GI50 [59] was 5.26 µM. For the same compound, the TGI [59] was 17.4 µM, the GI50 [47] was 2.91 µM and the TGI [47] was 15 µM. It also gave a GI50 [48] of 3.57 µM, a TGI [48] of 15.7 µM and a GI50 [49] of 6.82 µM. It also gave a TGI [49] of 19.9 µM, a GI50 [50] of 3.99 µM and a TGI [50] of 15.1 µM. It also gave a GI50 [51] of 13.2 µM, a TGI [51] of 30.1 µM and a GI50 [52] of 3.5 µM. For the same compound, the TGI [52] was 13 µM, the GI50 [53] was 6.59 µM and the TGI [53] was 43.6 µM.
